Patent US20190336496A1, “SELECTIVE BCL-2 INHIBITORS IN COMBINATION WITH AN ANTI-PD-1 OR AN ANTI-PD-L1 ANTIBODY FOR THE TREATMENT OF CANCERS” (AbbVie Inc., priority 2018, published 2019)

Columns and labels:
Test in all cases: Venetoclax cell killing (CellTiter-Glo)
Format in all cases: cell-based
A431 = conditions: Homo sapiens, A-431, 120 h; Epidermoid carcinoma (skin); 10% FBS; 5 days
Protocol: (§1) Solid tumor cell lines were obtained from American Type Culture Collection (ATCC, Manassas, Va.) or the National Cancer Institute (NCI) and cultured in humidified incubators at 37° C. (5% CO2) in appropriate media (specified by supplier) supplemented with 10% fetal bovine serum (FBS) or 10% human serum (HS). 24 hours after plating into 96-well or 384-well tissue culture plates, venetoclax was added to cells at various concentrations (typically 0.010 to 10 μM in half-log increments) to perform concentration-response assessments of cell killing. After 1 to 5 days of culture in the presence of venetoclax, cell viability was assessed using CellTiter-Glo® reagent (Promega). IC50 values were determined by non-linear regression analysis of the concentration response data (Table 5 and Table 6).

DLD-1 = conditions: Homo sapiens, DLD-1, 120 h; Colorectal; 10% FBS; 5 days
Protocol: as §1

COLO-201 = conditions: Homo sapiens, COLO 201, 120 h; Colorectal; 10% FBS; 5 days
Protocol: as §1

SW948 = conditions: Homo sapiens, SW948, 120 h; Colorectal; 10% FBS; 5 days
Protocol: as §1

NCI-H1836 = conditions: Homo sapiens, NCI-H1836, 48 h; Lung; 10% HS; 2 days
Protocol: as §1

SW620 = conditions: Homo sapiens, SW-620, 120 h; Colorectal; 10% FBS; 5 days
Protocol: as §1

NCI-H1993 = conditions: Homo sapiens, NCI-H1993, 72 h; Lung; 10% FBS; 3 days
Protocol: as §1

COLO-320DM = conditions: Homo sapiens, 120 h, Colorectal, 10% FBS, 5 days
Protocol: as §1

HT29 = conditions: Homo sapiens, HT-29, 120 h; Colorectal; 10% FBS; 5 days
Protocol: as §1

RKO = conditions: Homo sapiens, 120 h, Colorectal, 10% FBS, 5 days
Protocol: as §1

NCI-H522 = conditions: Homo sapiens, NCI-H522, 72 h; Lung; 10% FBS; 3 days
Protocol: as §1

HCC827 = conditions: Homo sapiens, HCC827, 72 h; Lung; 10% FBS; 3 days
Protocol: as §1

LoVo = conditions: Homo sapiens, 120 h, Colorectal, 10% FBS, 5 days
Protocol: as §1

NCI-H1299 = conditions: Homo sapiens, NCI-H1299, 120 h; Lung; 10% FBS; 5 days
Protocol: as §1

WM-115 = conditions: Homo sapiens, WM-115, 120 h; Melanoma; 10% FBS; 5 days
Protocol: as §1

22Rv1 = conditions: Homo sapiens, 22Rv1, 48 h; Prostate; 10% FBS; 2 days
Protocol: as §1

NCI-H2009 = conditions: Homo sapiens, NCI-H2009, 72 h; Lung; 10% FBS; 3 days
Protocol: as §1

SJSA-1 = conditions: Homo sapiens, SJSA-1, 120 h; Osteosarcoma; 10% FBS; 5 days
Protocol: as §1

NCI-H460 = conditions: Homo sapiens, NCI-H460, 72 h; Lung; 10% FBS; 3 days
Protocol: as §1

NCI-H1048 = conditions: Homo sapiens, NCI-H1048, 72 h; Lung; 10% FBS; 3 days
Protocol: as §1

NCI-H1963 = conditions: Homo sapiens, NCI-H1963, 24 h; Lung; 10% FBS; 1 day
Protocol: as §1

NCI-H847 = conditions: Homo sapiens, 24 h; Lung; 10% FBS; 1 day
Protocol: as §1

NCI-H526 = conditions: Homo sapiens, NCI-H526, 24 h; Lung; 10% FBS; 1 day
Protocol: as §1

A549 = conditions: Homo sapiens, A549, 72 h; Lung; 10% FBS; 3 days
Protocol: as §1

COLO-668 = conditions: Homo sapiens, COLO-668, 120 h; Colorectal; 10% FBS; 5 days
Protocol: as §1

NCI-H1975 = conditions: Homo sapiens, NCI-H1975, 72 h; Lung; 10% FBS; 3 days
Protocol: as §1

MDA-MB-468 = conditions: Homo sapiens, MDA-MB-468, 48 h; Breast Cancer; 10% FBS; 2 days
Protocol: as §1

COLO-205 = conditions: Homo sapiens, COLO 205, 120 h; Colorectal; 10% FBS; 5 days
Protocol: as §1

MDA-MB-231 = conditions: Homo sapiens, MDA-MB-231, 72 h; Breast Cancer; 10% FBS; 3 days
Protocol: as §1

NCI-H510A = conditions: Homo sapiens, 24 h, Lung, 10% FBS, 1 day
Protocol: as §1

LS411N = conditions: Homo sapiens, LS-411N, 120 h; Colorectal; 10% FBS; 5 days
Protocol: as §1

Which IC50 (A431) does the source give for `CC1(C)CCC(CN2CCN(c3ccc(C(=O)NS(=O)(=O)c4ccc(NCC5CCOCC5)c([N+](=O)[O-])c4)c(Oc4cnc5[nH]ccc5c4)c3)CC2)=C(c2ccc(Cl)cc2)C1` [Compound (I), venetoclax] here?
The IC50 was 4.35 µM.

And the IC50 (DLD-1)?
Its IC50 is greater than 10 µM.

And the IC50 (COLO-201)?
Its IC50 is 9.78 µM.

What about the IC50 (SW948) of the same compound?
The IC50 was greater than 10 µM.

What about the IC50 (NCI-H1836) of the same compound?
The IC50 was greater than 5 µM.

What about the IC50 (SW620) of the same compound?
The IC50 was greater than 10 µM.

What about the IC50 (NCI-H1993) of the same compound?
Its IC50 is 3.83 µM.

And the IC50 (COLO-320DM)?
The IC50 was greater than 10 µM.

What about the IC50 (HT29) of the same compound?
The IC50 was greater than 10 µM.

And the IC50 (RKO)?
The IC50 was greater than 10 µM.

What about the IC50 (NCI-H522) of the same compound?
Its IC50 is greater than 10 µM.

And the IC50 (HCC827)?
Its IC50 is greater than 10 µM.

And the IC50 (LoVo)?
The IC50 was greater than 10 µM.

And the IC50 (NCI-H1299)?
The IC50 was greater than 10 µM.

And the IC50 (WM-115)?
The IC50 was 4.96 µM.

And the IC50 (22Rv1)?
The IC50 was greater than 10 µM.

And the IC50 (NCI-H2009)?
The IC50 was 4.11 µM.

What about the IC50 (SJSA-1) of the same compound?
Its IC50 is greater than 10 µM.

And the IC50 (NCI-H460)?
Its IC50 is greater than 10 µM.

What about the IC50 (NCI-H1048) of the same compound?
Its IC50 is greater than 10 µM.

And the IC50 (NCI-H1963)?
Its IC50 is 4.59 µM.

And the IC50 (NCI-H847)?
The IC50 was greater than 10 µM.

What about the IC50 (NCI-H526) of the same compound?
The IC50 was greater than 10 µM.

And the IC50 (A549)?
Its IC50 is 3.19 µM.

What about the IC50 (COLO-668) of the same compound?
The IC50 was greater than 10 µM.

What about the IC50 (NCI-H1975) of the same compound?
Its IC50 is greater than 10 µM.

And the IC50 (MDA-MB-468)?
Its IC50 is greater than 10 µM.

What about the IC50 (COLO-205) of the same compound?
Its IC50 is greater than 10 µM.

What about the IC50 (MDA-MB-231) of the same compound?
Its IC50 is 4.83 µM.

What about the IC50 (NCI-H510A) of the same compound?
Its IC50 is 1.97 µM.

What about the IC50 (LS411N) of the same compound?
Its IC50 is 5.1 µM.
